The values that follow come from patent publication US9175030B2, “Derivatives of avicin D and methods of making and using thereof” (priority 2012, dated 2015).

pIC50: −log10 of the molar value.

One experiment has as its system A498. The experiment can be described thus: MTT growth inhibition, A498. Type of experiment: cell-based, human. The following applies: A498 cells, 72 hrs. Here is the method: (§1) The growth inhibitory effects of avicin D and oxetane derivative were measured using the MTT [3-(4,5-dimethylthiazol-2-yl)-2,5-diphenyl tetrazolium bromide] reduction assay as described in Haridas et al. (2001). Cells were cultured with varying concentrations of avicin D or oxetane in 96-well plates for 72 hrs at 37° C. At the end of 72 hrs, cells were stained with MTT for 2 hrs and then incubated with lysis buffer (20% SDS in 50% N,N-dimethylformamide) for another 6 hrs. Optical density at 570 nm was used as a measure of cell viability.
(§2) The cell lines 769P, A498, CAKI-1, and CAKI-2 are derived from primary human renal-cell cancers (RCC). A549 is a human lung adenocarcinoma epithelial cell line. B16F10 is a mouse melanoma cell line. BT474, BT 474 M1, BT549, MCF7, […], and ZR751 are breast cancer cell lines. CCRF-CEM, Jurkat, and MOLT4 are leukemia cell lines. HELA is cell line derived from cervical caner. HepG2 is a human hepatocellular liver carcinoma cell line. JeKo-1 is a mantle cell lymphoma (MCL) cell line. LnCAP is a cell line was established from a metastatic lesion of human prostatic adenocarcinoma. MM.1 and RPMI-8226 are human multiple myeloma cell lines. OVCAR3 and SKOV3 are ovarian cancer cell lines. Panc-1 is a pancreatic cancer cell line. PC3 is a prostate cancer cell line. Raji is a Burkitt's lymphoma cell line. RL is a non-Hodgkin's lymphoma cell line. […]

A further experiment relates to BT474. The experiment can be described thus: MTT growth inhibition, BT474. In kind it is cell-based. The following applies: BT474 cells, 72 hrs. Here is the method: as §1, §2
Another experiment has as its system CAKI-1. The experiment can be described thus: MTT growth inhibition, CAKI-1. Type of experiment: cell-based, human. The following applies: CAKI-1 cells, 72 hrs. Here is the method: as §1, §2
The next experiment has as its system CAKI-2. The experiment in a line: MTT growth inhibition, CAKI-2. The following applies: CAKI-2 cells, 72 hrs. In kind it is cell-based, human. The method, then: as §1, §2
For a further experiment, the system named is CCRF-CEM. The experiment can be described thus: MTT growth inhibition, CCRF-CEM. The following applies: CCRF-CEM cells, 72 hrs. Type of experiment: cell-based. Here is the method:
as §1, §2

A further experiment relates to Hela. The experiment in a line: MTT growth inhibition, Hela. In kind it is cell-based. The following applies: Hela cells, 72 hrs. The method, then: as §1, §2
Another experiment relates to JEKO-1. The experiment can be described thus: MTT growth inhibition, JEKO-1. The following applies: JEKO-1 cells, 72 hrs. In kind it is cell-based. Here is the method: as §1, §2
The subject of another experiment is Jurkat. The experiment in a line: MTT growth inhibition, Jurkat. Type of experiment: cell-based, human. The note with it: Jurkat cells, 72 hrs (Table 5). The method, then:
as §1, §2

In another experiment the test system is MOLT4. The experiment in a line: MTT growth inhibition, MOLT4. In kind it is cell-based. The note with it: MOLT4 cells, 72 hrs. The method, then:
as §1, §2

A further experiment concerns PC3. The experiment can be described thus: MTT growth inhibition, PC3. In kind it is cell-based. The note with it: PC3 cells, 72 hrs. Here is the method:
as §1, §2

For another experiment, the system named is Raji. The experiment can be described thus: MTT growth inhibition, Raji. The note with it: Raji cells, 72 hrs. In kind it is cell-based. The method, then:
as §1, §2

The subject of the next experiment is SKOV3. The experiment can be described thus: MTT growth inhibition, SKOV3. Type of experiment: cell-based. The note with it: SKOV3 cells, 72 hrs. The method, then:
as §1, §2

The subject of a further experiment is U2OS. The experiment in a line: MTT growth inhibition, U2OS. Type of experiment: cell-based, human. The note with it: U2OS cells, 72 hrs. The method, then:
as §1, §2

Another experiment concerns U266. The experiment in a line: MTT growth inhibition, U266. The following applies: U266 cells, 72 hrs. In kind it is cell-based. Here is the method: as §1, §2
A further experiment has as its system WSU-DLCL2. The experiment can be described thus: MTT growth inhibition, WSU-DLCL2. In kind it is cell-based, human. The following applies: WSU-DLCL2 cells, 72 hrs. The method, then:
as §1, §2

The next experiment relates to 3T3 L1. The experiment can be described thus: MTT growth inhibition, 3T3 L1. In kind it is cell-based. The following applies: 3T3 L1 fibroblast cells, 72 hrs. Here is the method:
as §1, §2

The next experiment relates to Nrf2. The experiment in a line: Nrf2 activation, ARE-driven luciferase in Hep G2 cells. In kind it is cell-based, human. The following applies: Hep G2 cells transfected with hARE-luc, luciferase activity. The method, then:
Activation of Nrf2 was assessed by measuring the antioxidant response element (ARE)-mediated gene expression as described previously by Haridas et al., 2004, which is incorporated herein by reference. Briefly, ARE is a cis-acting regulatory sequence identified in the promoter region of several genes encoding phase 2 detoxification enzymes, that binds to Nrf2. Hep G2 (human hepatocarcinoma) cells were transfected with a human ARE-driven luciferase (luc) containing plasmid, hARE-luc. Following exposure to avicin D/compound 8, the luciferase activity induced in these cells was measured using a dual-luciferase assay kit (Promega) according to the manufacturer's protocol.

Another experiment concerns NF-κB. The experiment in a line: Inhibition of NF-κB activation (FIG. 2A). In kind it is cell-based. The note with it: compared with dexamethasone.
The target of experiment [1] is glucocorticoid receptor (GR) (Homo sapiens, UniProt P04150). The experiment can be described thus: GR Ser-211 phosphorylation (FIG. 4). Type of experiment: cell-based. The note with it: up to 16 hours.
The subject of the next experiment is chemotaxis. The experiment can be described thus: Inhibition of chemotaxis. In kind it is cell-based. The note with it: preliminary data.
Another experiment deals with human preadipocytes. The note with it: cited from earlier work.

Chain of glucocorticoid receptor (GR) (P04150 whole entry): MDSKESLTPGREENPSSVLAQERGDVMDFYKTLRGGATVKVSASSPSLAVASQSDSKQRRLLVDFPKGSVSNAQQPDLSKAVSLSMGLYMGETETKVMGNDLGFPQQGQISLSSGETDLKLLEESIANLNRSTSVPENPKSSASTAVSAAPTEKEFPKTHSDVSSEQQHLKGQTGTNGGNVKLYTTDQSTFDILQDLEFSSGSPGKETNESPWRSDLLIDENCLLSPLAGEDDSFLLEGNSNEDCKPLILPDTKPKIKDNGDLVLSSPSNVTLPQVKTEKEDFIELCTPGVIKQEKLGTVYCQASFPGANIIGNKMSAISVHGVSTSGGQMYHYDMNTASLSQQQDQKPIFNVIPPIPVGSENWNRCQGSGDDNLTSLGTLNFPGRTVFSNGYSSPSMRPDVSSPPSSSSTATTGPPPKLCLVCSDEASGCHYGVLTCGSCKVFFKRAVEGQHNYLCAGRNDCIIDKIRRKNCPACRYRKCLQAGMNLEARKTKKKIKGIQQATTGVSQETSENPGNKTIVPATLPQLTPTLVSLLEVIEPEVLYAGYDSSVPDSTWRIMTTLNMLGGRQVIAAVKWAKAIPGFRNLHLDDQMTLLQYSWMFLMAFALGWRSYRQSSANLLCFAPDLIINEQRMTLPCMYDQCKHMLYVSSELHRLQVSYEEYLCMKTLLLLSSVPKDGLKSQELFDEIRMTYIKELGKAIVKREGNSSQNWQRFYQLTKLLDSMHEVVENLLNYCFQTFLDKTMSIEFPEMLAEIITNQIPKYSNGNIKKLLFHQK

`C=C[C@](C)(O)CC/C=C(\CO)C(=O)O[C@H]1[C@H](O)[C@@H](O)[C@H](O[C@@](C)(C=C)CC/C=C(\CO)C(=O)O[C@H]2C[C@]3(C(=O)O[C@@H]4O[C@H](CO)[C@@H](O)[C@H](O)[C@H]4O[C@@H]4O[C@@H](C)[C@H](O[C@@H]5O[C@@H](CO)[C@H](O)[C@H]5O)[C@@H](O[C@@H]5O[C@H](CO)[C@@H](O)[C@H](O)[C@H]5O)[C@H]4O)[C@H](O)C[C@]4(C)C(=CC[C@@H]5[C@@]6(C)CC[C@H](O[C@@H]7O[C@H](CO[C@@H]8O[C@H](C)[C@H](O)[C@H](O)[C@H]8O[C@@H]8OC[C@@H](O)[C@H](O)[C@H]8O)[C@@H](O)[C@H](O)[C@H]7NC(C)=O)C(C)(C)[C@@H]6CC[C@]54C)[C@@H]3CC2(C)C)O[C@@H]1C` [Avicin D]: the pIC50 in the experiment on A498 is 6.36; with BT474, 5.55; in the experiment with CAKI-1 it was 5.95; in the experiment on CAKI-2 it was 5.69; with CCRF-CEM, 5.26; in the experiment with Hela, 4.88. In addition, the negative-log IC50 (pIC50) was 6.38 in the experiment with JEKO-1; 6.77 with Jurkat; 6.49 in the experiment on MOLT4; 6.36 with PC3; 5.90 in the experiment on Raji; 6.00 in the experiment with SKOV3. Also, the pIC50 is 5.36 in the experiment on U2OS, 6.52 with U266, 6.28 in the experiment on WSU-DLCL2 and 5.42 in the experiment on 3T3 L1. Moreover, in the experiment with Nrf2, the “Fold Nrf2 activation” value is 2.10. Moreover, the “activation of NF-κB” value in the experiment with NF-κB is reported as “inhibits activation of NF-κB”. In [1], the “phosphorylation of Ser-211” value is reported as “does not enhance phosphorylation of Ser-211 even after 16 hours”. In the experiment on chemotaxis, the inhibition of chemotaxis result was “effective at inhibiting chemotaxis at picomolar and nanomolar concentrations”. For the same compound, the “differentiation of preadipocytes to mature adipocytes” value in the experiment with human preadipocytes is listed as “inhibited the differentiation of human preadipocytes to mature adipocytes”. Further, in the experiment with human preadipocytes, the intracellular triglyceride levels entry is recorded as “reduced intracellular triglyceride levels”.

A word on the pIC50: it is the negative decadic logarithm of the IC50, by convention in mol/L. A low value points to a high IC50.
